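Cells were grown in 96-well plates and exposed to each compound for 48 hours at five concentrations; endpoints were interpolated linearly between bracketing concentrations, or set to the highest concentration if not reached. GI50 is the concentration that inhibits growth by half.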 The source made the active and inactive calls. No stated cut-off is given here; in the data, active = GI50 up to about 1.1 µM and inactive = higher.
Legend:
Experiment in all cases: DTP human tumour cell line panel, 48 h
DLD-1 = test system: DLD-1
HOP-18 = test system: HOP-18
KM-20L2 = test system: KM-20L2
LXFL 529 = test system: LXFL 529
M19-MEL = test system: M19-MEL
RXF 631 = test system: RXF 631
SNB-78 = test system: SNB-78
XF498 = test system: XF498
BT-549 = test system: BT-549

Measured: GI50

CCOc1ccc(Nc2nc(C)c(C(=O)/C=C/c3ccc(Cl)cc3Cl)s2)cc1
inactive: DLD-1 26.5 µM | HOP-18 26.3 µM | KM-20L2 25.4 µM | LXFL 529 18.8 µM | M19-MEL 26.1 µM | RXF 631 21.8 µM | SNB-78 21.4 µM | XF498 19.6 µM

C[C@]12CCC3[C@@H](CC[C@@H]4c5nonc5CC[C@]34C)C1C/C(=N/O)C2=O (stereo not given in full)
inactive: HOP-18 > 100 µM | KM-20L2 > 100 µM | LXFL 529 18.6 µM | M19-MEL > 100 µM | RXF 631 > 100 µM | SNB-78 > 100 µM | XF498 11.5 µM

CCOc1ccc2c(c1)[n+]([O-])c(-c1ccc(Br)cc1)c(N)[n+]2[O-]
inactive: DLD-1 99.5 µM | HOP-18 57.4 µM | KM-20L2 47 µM | LXFL 529 52.2 µM | M19-MEL 59.2 µM | RXF 631 56.4 µM | SNB-78 > 100 µM | XF498 49.9 µM

O=C(N/C(=C/c1cccc([N+](=O)[O-])c1)c1nc2cc(Cl)ccc2[nH]1)c1ccccc1
inactive: HOP-18 30.9 µM | KM-20L2 10.5 µM | LXFL 529 12.6 µM | M19-MEL 24 µM | RXF 631 10.5 µM | SNB-78 39.9 µM

CCCCCCN(CCCCCC)C1=CC(=O)C(=O)c2ccccc21
inactive: DLD-1 15.2 µM | HOP-18 16.1 µM | KM-20L2 18.2 µM | LXFL 529 19.3 µM | M19-MEL 2.26 µM | RXF 631 14.7 µM | SNB-78 23 µM

C[C@]12Cc3conc3C(O)=C1CC[C@@H]1C2CC[C@@]2(C)C1CC[C@]2(C)O (stereo not given in full)
inactive: DLD-1 16.5 µM | KM-20L2 13.5 µM | LXFL 529 15.1 µM | M19-MEL 15.1 µM | RXF 631 21.6 µM | SNB-78 22.4 µM | XF498 18.2 µM

C[C@]12CCC3[C@@H](CC[C@@H]4c5nonc5CC[C@]34C)C1CCC2=O (stereo not given in full)
inactive: HOP-18 43.9 µM | KM-20L2 25.7 µM | LXFL 529 23.3 µM | M19-MEL 21.6 µM | RXF 631 38.2 µM | SNB-78 23.2 µM | XF498 19.1 µM

COC1=C(OC)C(=O)c2cc(C)c(=O)c(C)cc2C1=O
inactive: BT-549 15.2 µM | DLD-1 22.3 µM | HOP-18 16.3 µM | KM-20L2 21.1 µM | LXFL 529 4.36 µM | M19-MEL 3.37 µM | RXF 631 50.6 µM | SNB-78 18.5 µM

O=S1(=O)NN=C(NCc2ccc(Cl)cc2)c2ccccc21
inactive: DLD-1 95.1 µM | KM-20L2 > 100 µM | LXFL 529 61.1 µM | M19-MEL > 100 µM | RXF 631 > 100 µM | SNB-78 > 100 µM | XF498 90.6 µM

C=C1CC2CC[C@@]34C[C@@H]5O[C@@H]6C(O[C@H]7CC[C@H](CC(=O)OC8[C@@H](C)C9OC%10C[C@]%11(C[C@@H]%12O[C@@]%13(C[C@@H](C)[C@@H]%12O%11)C[C@H](C)[C@@H]%11OC%12CC(C(O)CO)OC%12C[C@@H]%11O%13)OC%10CC9O[C@H]8C[C@H]8O[C@@H](CC[C@@H]1O2)C[C@@H](C)C8=C)O[C@@H]7[C@@H]6O3)C5O4 (stereo not given in full)
active: DLD-1 0.00267 µM | KM-20L2 0.000428 µM | LXFL 529 0.000564 µM | RXF 631 0.000603 µM | SNB-78 0.00178 µM | XF498 0.000267 µM

CN(C)c1cccc(-c2cc(O)c3cc4c(cc3n2)OCO4)c1
active: DLD-1 0.206 µM | KM-20L2 0.216 µM | LXFL 529 0.13 µM | M19-MEL 0.401 µM | RXF 631 0.815 µM | XF498 0.144 µM
inactive: SNB-78 62.8 µM

O=C(O)CN(c1ccc(F)cc1)S(=O)(=O)c1ccccc1
inactive: DLD-1 > 100 µM | HOP-18 > 100 µM | KM-20L2 > 100 µM | LXFL 529 > 100 µM | M19-MEL > 100 µM | RXF 631 > 100 µM | XF498 > 100 µM

From ChEMBL document CHEMBL1201862, “PubChem BioAssay data set” (2004)
